{"source": "patent US12195462B2", "about": "“Organic compound” (INTRA-CELLULAR THERAPIES, INC., priority 2018, dated 2025)", "key": {"[1]": {"assay": "Rat PK study of the compound of Example 1", "assay_type": "in vivo", "procedure": "(§1) Surgically modified rats are housed one per cage, and supplied with water and a commercial rodent diet ad libitum prior to study initiation. Food is withheld from the animals for a minimum of twelve hours before and during the study, until four hours post-dose, at which time food is returned. Animals are dosed IV, SC and PO, and blood samples are collected following the study design in the following table. Blood samples (˜0.25 mL) are collected via JVC or tail vein, placed into chilled blood collection tubes containing sodium heparin as the anticoagulant, and kept on ice until centrifugation. Blood samples are then centrifuged at a temperature of 2 to 8° C., at 3,000 g, for 5 minutes. Drug levels in the plasma samples are quantified via HPLC with MS/MS detection. Pharmacokinetic parameters based on the group geomean concentration versus time data, are calculated using a noncompartmental pharmaceutical data analysis software PK Solutions 2.0 (Summit Research Services, Montrose, Colo.)."}, "human D2S receptor [2]": {"biological_target": "T1, human D2S receptor (Homo sapiens (Human), UniProt P14416)", "T1 sequence (P14416 other isoform, or with tags, fused parts or gaps)": "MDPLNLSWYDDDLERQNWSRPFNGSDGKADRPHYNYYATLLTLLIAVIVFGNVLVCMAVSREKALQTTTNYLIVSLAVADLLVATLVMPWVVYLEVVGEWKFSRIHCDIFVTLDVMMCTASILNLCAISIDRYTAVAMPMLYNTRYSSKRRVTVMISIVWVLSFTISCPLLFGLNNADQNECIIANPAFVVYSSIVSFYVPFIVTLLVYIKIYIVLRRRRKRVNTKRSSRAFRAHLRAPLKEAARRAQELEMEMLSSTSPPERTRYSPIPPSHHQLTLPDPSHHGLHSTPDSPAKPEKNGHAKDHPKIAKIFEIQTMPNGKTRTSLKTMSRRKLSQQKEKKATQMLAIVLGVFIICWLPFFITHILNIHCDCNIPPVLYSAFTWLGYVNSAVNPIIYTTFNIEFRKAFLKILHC", "assay": "Cell-based functional cAMP assay, antagonist signaling (reversal of quinpirole inhibition)"}, "human D2S receptor [3]": {"biological_target": "T1, human D2S receptor", "assay": "Cell-based functional cAMP assay, agonist signaling (inhibition of forskolin-stimulated cAMP)"}, "[4]": {"assay": "Rat PK studies of the compound of Example 3", "conditions": "Study One, IV 1 mg/kg"}, "Mu opiate receptor": {"biological_target": "Mu opiate receptor (Homo sapiens (Human), UniProt P35372)", "sequence (P35372 whole entry)": "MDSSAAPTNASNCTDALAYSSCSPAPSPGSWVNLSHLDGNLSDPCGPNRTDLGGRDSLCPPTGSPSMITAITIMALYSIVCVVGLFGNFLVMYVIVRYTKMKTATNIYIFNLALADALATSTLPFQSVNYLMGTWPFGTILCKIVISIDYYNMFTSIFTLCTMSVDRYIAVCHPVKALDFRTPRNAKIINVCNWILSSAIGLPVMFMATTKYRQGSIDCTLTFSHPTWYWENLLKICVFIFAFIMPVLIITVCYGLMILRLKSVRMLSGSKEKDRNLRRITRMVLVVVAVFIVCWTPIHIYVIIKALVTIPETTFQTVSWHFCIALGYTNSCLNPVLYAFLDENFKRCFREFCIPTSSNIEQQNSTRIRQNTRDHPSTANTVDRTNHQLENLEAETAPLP", "assay": "Receptor binding, Mu opiate receptor"}, "SERT": {"biological_target": "SERT (Homo sapiens (Human), UniProt P31645)", "sequence (P31645 whole entry)": "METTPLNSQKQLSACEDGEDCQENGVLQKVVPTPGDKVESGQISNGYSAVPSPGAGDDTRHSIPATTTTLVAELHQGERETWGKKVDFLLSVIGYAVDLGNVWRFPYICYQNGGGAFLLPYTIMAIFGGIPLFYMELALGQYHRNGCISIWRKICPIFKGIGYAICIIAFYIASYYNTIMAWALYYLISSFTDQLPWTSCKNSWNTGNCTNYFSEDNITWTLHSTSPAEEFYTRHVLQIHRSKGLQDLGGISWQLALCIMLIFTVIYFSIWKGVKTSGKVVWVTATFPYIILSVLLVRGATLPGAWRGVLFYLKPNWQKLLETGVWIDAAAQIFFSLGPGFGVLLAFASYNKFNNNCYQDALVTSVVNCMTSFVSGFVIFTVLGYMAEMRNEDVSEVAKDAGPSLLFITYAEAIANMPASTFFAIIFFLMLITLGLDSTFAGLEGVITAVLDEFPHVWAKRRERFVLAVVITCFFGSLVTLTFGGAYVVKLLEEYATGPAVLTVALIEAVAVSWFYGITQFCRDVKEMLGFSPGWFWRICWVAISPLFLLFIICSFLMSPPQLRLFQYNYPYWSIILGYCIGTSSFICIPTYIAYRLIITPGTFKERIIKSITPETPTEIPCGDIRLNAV", "assay": "Binding, SERT"}, "[5]": {"assay": "Rat PK study of the compound of Example 2", "assay_type": "in vivo", "procedure": "as §1\nThis study is performed according to the same procedure as outlined in Example 5a, with the blood samples collected as shown in the table below."}, "[6]": {"tested_on": "patients with acute exacerbated schizophrenia", "assay": "Clinical studies of patients with acute exacerbated schizophrenia", "assay_type": "in vivo", "conditions": "once daily 60 mg P.O., up to 28 days", "excerpt": "Social avoidance can be a critical and debilitating symptom in patients suffering from anxiety disorders, especially social anxiety disorder, as well as in patients suffering from traumatic anxiety disorders. Social avoidance is often one of the key determinants of whether a person with a severe anxiety disorder is capable of maintaining familial relationships or employment relationships. […] Negative symptoms of schizophrenia can be divided into two categories: emotional experience (e.g., emotional withdrawal, passive social withdrawal, active social avoidance) and emotional expression (e.g., blunted effect, poor rapport, lack of spontaneity, and motor retardation). […] These are the symptoms that are most highly correlated with interpersonal functioning."}, "[7]": {"tested_on": "patients with major depressive episodes", "conditions": "40-minute infusion, total dose 0.5 mg/kg, after 24 hours; cited from earlier work"}}}
{"smiles": "CN1C(=O)CN2c3c(cccc31)[C@@H]1CN(CCCOc3ccc(F)cc3)CC[C@@H]12", "note": "[Compound 1, (6bR,10aS)-8-(3-(4-fluorophenoxy)propyl)-3-methyl-6b,7,8,9,10,10a-hexahydro-1H-pyrido[3′,4′:4,5]pyrrolo[1,2,3-de]quinoxalin-2(3H)-one]", "values": [{"measurement": "t-1/2", "setting": "[1]; IV 1 mg/kg", "result": 1.0, "unit": "h"}, {"measurement": "AUC", "setting": "[1]; plasma, IV 1 mg/kg", "result": 270, "unit": "ng·h/mL"}, {"measurement": "Cmax", "setting": "[1]; plasma, IV 1 mg/kg", "result": 505, "unit": "ng/mL"}, {"measurement": "bioavailability", "setting": "[1]; plasma, IV 1 mg/kg", "result": 100, "unit": "%"}, {"measurement": "concentration at 30 min", "setting": "[1]; plasma, IV 1 mg/kg", "result": 116, "unit": "ng/mL"}, {"measurement": "concentration at 1 h", "setting": "[1]; plasma, IV 1 mg/kg", "result": 70, "unit": "ng/mL"}, {"measurement": "concentration at 6 h", "setting": "[1]; plasma, IV 1 mg/kg", "result": 1.6, "unit": "ng/mL"}, {"measurement": "AUC", "setting": "[1]; plasma, PO 1 mg/kg", "result": 22.6, "unit": "ng·h/mL"}, {"measurement": "Cmax", "setting": "[1]; plasma, PO 1 mg/kg", "result": 5, "unit": "ng/mL"}, {"measurement": "bioavailability", "setting": "[1]; plasma, PO 1 mg/kg", "result": 10, "unit": "%"}, {"measurement": "concentration at 30 min", "setting": "[1]; plasma, PO 1 mg/kg", "result": 4.2, "unit": "ng/mL"}, {"measurement": "concentration at 1 h", "setting": "[1]; plasma, PO 1 mg/kg", "result": 2.9, "unit": "ng/mL"}, {"measurement": "concentration at 6 h", "setting": "[1]; plasma, PO 1 mg/kg", "result": 1.4, "unit": "ng/mL"}, {"measurement": "AUC", "setting": "[1]; plasma, SC 1 mg/kg", "result": 247, "unit": "ng·h/mL"}, {"measurement": "Cmax", "setting": "[1]; plasma, SC 1 mg/kg", "result": 34, "unit": "ng/mL"}, {"measurement": "bioavailability", "setting": "[1]; plasma, SC 1 mg/kg", "result": 90, "unit": "%"}, {"measurement": "concentration at 30 min", "setting": "[1]; plasma, SC 1 mg/kg", "result": 23.6, "unit": "ng/mL"}, {"measurement": "concentration at 1 h", "setting": "[1]; plasma, SC 1 mg/kg", "result": 28.1, "unit": "ng/mL"}, {"measurement": "concentration at 6 h", "setting": "[1]; plasma, SC 1 mg/kg", "result": 12.8, "unit": "ng/mL"}, {"measurement": "concentration at 24 h", "setting": "[1]; plasma, SC 1 mg/kg", "result": 1.3, "unit": "ng/mL"}, {"measurement": "antagonist activity at the D2S receptor (in words)", "setting": "human D2S receptor [2]", "result": "antagonist activity"}, {"measurement": "agonist activity at the D2S receptor (in words)", "setting": "human D2S receptor [3]", "result": "no detectable agonist activity"}, {"measurement": "Agonist EC50", "setting": "human D2S receptor [3]; CHO-K1 hD2S, 10 μM forskolin", "result": "no activity"}]}
{"smiles": "O=C1CN2c3c(cccc3[C@@H]3CN(CCCOc4ccc(F)cc4)CC[C@@H]32)N1", "note": "[Formula A, (6bR,10aS)-8-(3-(4-fluorophenoxy)propyl)-6b,7,8,9,10,10a-hexahydro-1H-pyrido[3′,4′:4,5]pyrrolo[1,2,3-de]quinoxalin-2(3H)-one]", "values": [{"measurement": "t-1/2", "setting": "[4]", "result": 1.1, "unit": "h"}, {"measurement": "mu-opiate activity (in words)", "setting": "Mu opiate receptor", "result": "very strong mu-opiate antagonist"}, {"measurement": "SERT activity (in words)", "setting": "SERT", "result": "relatively weak SERT antagonist"}]}
{"smiles": "CN1CCN2c3c(cccc31)[C@@H]1CN(CCCC(=O)c3ccc(F)cc3)CC[C@@H]12", "note": "[Formula B, 4-((6bR,10aS)-3-methyl-2,3,6b,9,10,10a-hexahydro-1H-pyrido-[3′,4′:4,5]-pyrrolo[1,2,3-de]quinoxalin-8-(7H)-yl)-1-(4-fluorophenyl)-1-butanone]", "values": [{"measurement": "t-1/2", "setting": "[5]; IV 1 mg/kg", "result": 1.4, "unit": "h"}, {"measurement": "AUC", "setting": "[5]; plasma, IV 1 mg/kg", "result": 231, "unit": "ng·h/mL"}, {"measurement": "bioavailability", "setting": "[5]; plasma, IV 1 mg/kg", "result": 100, "unit": "%"}, {"measurement": "concentration at 30 min", "setting": "[5]; plasma, IV 1 mg/kg", "result": 92.5, "unit": "ng/mL"}, {"measurement": "concentration at 6 h", "setting": "[5]; plasma, IV 1 mg/kg", "result": 3.1, "unit": "ng/mL"}, {"measurement": "concentration at 12 h", "setting": "[5]; plasma, IV 1 mg/kg", "result": 0.5, "unit": "ng/mL"}, {"measurement": "AUC", "setting": "[5]; plasma, PO 10 mg/kg", "result": 56, "unit": "ng·h/mL"}, {"measurement": "Cmax", "setting": "[5]; plasma, PO 10 mg/kg", "result": 13.8, "unit": "ng/mL"}, {"measurement": "bioavailability", "setting": "[5]; plasma, PO 10 mg/kg", "result": 2, "unit": "%"}, {"measurement": "concentration at 30 min", "setting": "[5]; plasma, PO 10 mg/kg", "result": 12.2, "unit": "ng/mL"}, {"measurement": "concentration at 1 h", "setting": "[5]; plasma, PO 10 mg/kg", "result": 13.8, "unit": "ng/mL"}, {"measurement": "concentration at 6 h", "setting": "[5]; plasma, PO 10 mg/kg", "result": 1.5, "unit": "ng/mL"}, {"measurement": "concentration at 12 h", "setting": "[5]; plasma, PO 10 mg/kg", "result": 0.3, "unit": "ng/mL"}, {"measurement": "AUC", "setting": "[5]; plasma, SC 45 mg/kg", "result": 7630, "unit": "ng·h/mL"}, {"measurement": "Cmax", "setting": "[5]; plasma, SC 45 mg/kg", "result": 747, "unit": "ng/mL"}, {"measurement": "bioavailability", "setting": "[5]; plasma, SC 45 mg/kg", "result": 73, "unit": "%"}, {"measurement": "concentration at 30 min", "setting": "[5]; plasma, SC 45 mg/kg", "result": 705, "unit": "ng/mL"}, {"measurement": "concentration at 1 h", "setting": "[5]; plasma, SC 45 mg/kg", "result": 700, "unit": "ng/mL"}, {"measurement": "concentration at 6 h", "setting": "[5]; plasma, SC 45 mg/kg", "result": 498, "unit": "ng/mL"}, {"measurement": "concentration at 12 h", "setting": "[5]; plasma, SC 45 mg/kg", "result": 168, "unit": "ng/mL"}, {"measurement": "concentration at 24 h", "setting": "[5]; plasma, SC 45 mg/kg", "result": 12.3, "unit": "ng/mL"}, {"measurement": "mu-opiate activity (in words)", "setting": "Mu opiate receptor", "result": "no mu-opiate activity"}, {"measurement": "Ki", "setting": "Mu opiate receptor; Mu opiate receptor, read-out: Ki (nM) or maximum inhibition", "result": "> 10000", "unit": "nM"}, {"measurement": "SERT activity (in words)", "setting": "SERT", "result": "very strong SERT antagonist"}, {"measurement": "symptoms of emotional experience compared to placebo", "setting": "[6]", "result": "significant and unexpected improvement in symptoms of emotional experience"}, {"measurement": "glutamatergic neurotransmission (NMDA and AMPA receptor conductance)", "setting": "rat mPFC slices", "result": "enhances glutamatergic neurotransmission"}]}
{"smiles": "CNC1(c2ccccc2Cl)CCCCC1=O", "note": "(centres unmarked) [ketamine]", "values": [{"measurement": "ratings on the Hamilton Depression Rating Scale (HDRS) compared to placebo", "setting": "[7]", "result": "significantly improved ratings"}]}
